Source: US20040018482A1, “Loading and unloading of permeating protectants for cell, tissue, and organ cryopreservation by vitrification” (priority 1997, published 2004)

Experiments:
isolated rat heart = test: Cardiac function of isolated rat heart (working mode reperfusion) after DMSO loading and unloading
Procedure: Preparation of the Cardiac Explant: The animal experiments were conducted in accordance with the “Principles of Laboratory Animal Care” formulated by the Institute of Laboratory Animal Resources and the “Guide for the Care and Use of Laboratory Animals” prepared by the Institute of Laboratory Animal Resources and published by the National Institute of Health (NIH Publication No. 86-23, 1985). Male Sprague-Dawley rats (300-350g) were anesthetized with sodium pentobarbital (65 mg/kg, ip) and anticoagulated with heparin (250u, iv). The heart was excised and immediately immersed in ice-cold Krebs-Henseleit buffer (KHB), which contained (in mM): 118 NaCl, 11 glucose, 25 NaHCO3, 4.7 KCl, 1.2 MgSO4, 1.2 KH2PO4, 0.5 Na-EDTA, and 2.5 CaCl2. The aorta was cannulated and the heart retrograde perfused at 70 mm Hg for 9 min. with 36.5° C. KHB equilibrated with 95% 02/[…]. The perfusion was continued for 2 min. at 60 mm Hg with CP-11E saturated with 100% 02. The composition of CP-11E (in mM) was: 125 NaCl, 7 glucose, 1.2 KH2PO4, 10 mannitol, 15 MgSO4, 14 KCl, 10 Hepes, 0.02 EDTA, 0.28 CaCl2 , pH 7.5.
After CP-11E flush, the arrested heart was transferred to a perfusion apparatus (FIG. 1). Both CP-11EB and CP-11E+DMSO+mannitol were bubbled constantly with 100% 02. Perfusate was delivered via an aortic cannula by a peristaltic pump at a flow rate of 1 ml/min. Two experiments were performed at room temperature.
Experiment 0: The heart was gradually loaded with 30 wt % DMSO and immediately unloaded. No co-solutes were used. […]
Assessment of cardiac function: Cardiac function was assessed by working mode reperfusion with KHB at 11 mm Hg preload and 70 mm Hg after load. Heart rate (HR, beats/min), aortic and coronary flow (AF and CF, ml/min.), cardiac output (CO=AF+CF, ml/min.), systolic and diastolic aortic pressure (mm Hg) were recorded. Coronary vascular resistance and work were calculated according to Neely et al., 1967 (Neely et al. “Effect of Pressure Development on Oxygen Consumption by the Isolated Rat Heart ”. Am. J. Physiology, 212:804-12, 1967).

erythrocytes = test: Hemolysis of rat erythrocytes after step loading and unloading with ethylene glycol vitrification solution; type: cell-based; settings: added to 60 wt % EG+0.9 wt % NaCl vitrification solution; 60 min equilibration and two unloading steps; room temperature, pH 7.0; FIG. 1
Procedure: Blood was sampled from external jugular vein of rats after heart extrusion described in Example 1.
Step 1: 100 μl of blood were mixed with 100 μl of 30 wt % EG+0.9 wt % NaCl. Equilibration time 10 min.
Step 2: 1000 μl of vitrification solution vitrification solution containing mixture of 60 wt % EG+0.9 wt % NaCl with different amounts of glutamic acid monosodium Salt (GA) per gram of Vitrification solution were slowly (during 3-5 min.) added to the mixture obtained after Step 1.
After that the blood cells were equilibrated in Vitrification solution during 60 min. before unloading.
Step 1: After 60 min. equilibration in vitrification solution erythrocytes were centrifuged down (5 min. at 2000 g), 0.5 ml of supernatant was removed from each sample, and 0.5 ml of 3 wt % GA+0.9 wt % NaCl were added to each sample. […]
Concentration of free hemoglobin in supernatants collected from the samples after equilibration in Vitrification solution, first and second step of unloading was used to characterize the erythrocyte damage (hemolysis). The concentration of free hemoglobin was measured using 390 Turner spectrophotometer (at 550 nm wavelength) after adding 0.5 ml of supernatant to 3 ml of water. The hemolysis was measured as a ratio of hemoglobin concentration in the supernatants to the hemoglobin concentration in the mixture of 41.7 μl of blood with 3.5 ml water that was taken as 100% hemolysis. […]

[1] = system: Drosophila melanogaster embryos; settings: co-solute in ethylene glycol vitrification solution; cited from earlier work
[2] = Experiment 0: loaded to 30 wt % DMSO in 30 min, unloaded 60 min, no co-solutes (mannitol not present)

C[S+](C)[O-] [DMSO, dimethylsulfoxide]
recovery in function after unloading (isolated rat heart; [2]): no recovery in function
state of the heart (contracture) (isolated rat heart; [2]): developed contracture

N[C@@H](CCC(=O)O)C(=O)[O-].[Na+] [GA, glutamic acid monosodium Salt]
effect of co-solute on erythrocyte damage (hemolysis) (erythrocytes): protects erythrocytes from damage

N[C@@H](CCC(=O)O)C(=O)O [glutamic acid]
effect on ethylene glycol permeation into embryos [1]: significantly diminished ethylene glycol permeation

NCC(=O)O [glycine]
effect on ethylene glycol permeation into embryos [1]: significantly diminished ethylene glycol permeation

OC[C@@H](O)[C@@H](O)[C@H](O)[C@H](O)CO [mannitol]
effect of presence of mannitol on damage to the heart caused by high concentration of DMSO and changes in osmotic pressure (isolated rat heart; mannitol present during loading, perfusion and unloading (Experiments 1 and 2)): prevented damage to the heart

OC[C@@H](O)[C@@H](O)[C@H](O)[C@@H](O)CO [sorbitol]
effect on ethylene glycol permeation into embryos [1]: significantly diminished ethylene glycol permeation
